Source: patent US20240299266A1, “FRAGRANCE COMPOSITIONS WITH MOISTURIZING BENEFITS” (Firmenich SA, priority 2021, published 2024)
“Also recorded” adds a separate entry of the source.

Experiment: TEWL (trans-epidermal water loss) measurement on in-vitro skin model
Settings: 50 μL applied on hydrated artificial skin membrane on a Franz Cell, Vapometer, TEWL during 60 min, normalized to pre-treatment reference (100%)
Text: The present inventors have investigated the moisturizing potential of perfume ingredients. To perform this assessment they used a model called a skin replicating surface, and measured the transepidermal water loss (TEWL) before and after the deposit of a sample of the perfume ingredient. This is measure of the moisturizing activity of the perfume ingredient.
The moisturizing activity of a fragrance component may be calculated as follows. • a step of controlled deposition of a fragrance component upon an skin replicating surface, • a step of measurement of a quantity of evaporated water from the skin replicating surface or of remaining water on the skin replicating surface after the deposition of the fragrance component at different measurement times, • a step of reduction of the water evaporation rate calculation depending on the measured evaporated or remaining water quantities measured, • a step of moisturizing activity calculation as a function of the water evaporation rate measured.
The skin replicating surface comprising (i) a hydrogel membrane layer comprising a water permeable substrate supporting a biopolymer, and (ii) a stratum corneum mimic layer.
The hydrogel membrane composition should include a knitted cotton piece topped by a hydrogel containing biopolymer (gelatin) able to form a hydrogel with water and glycerol.
The stratum corneum mimic layer can be a Vitro-Corneum substrate (product of IMS inc.)
Before measurements, the hydrogel membrane and the Vitro-Corneum substrate should be separately hydrated in a hydration chamber and then, assembled. The Vitro-Corneum substrate is made of proteins and lipids and mimics the thickness, the visco-elasticity, the chemical reactivity and the surface properties of human stratum corneum. The hydrogel allows to keep the Vitro-Corneum substrate hydrated.
Hydrogel is prepared by mixing gelatin, glycerol and water at a water bath in the following composition. Preferably around 50% of the hydrogel is glycerol and around 5% is gelatin completed to 100% with water. This is added to a supporting surface and allowed to set.
Both part of the artificial skin model needs to be hydrated before being assembled. Hydrogel membranes and the Vitro-Corneum substrate (2×2 cm) are placed into an hydration chamber containing the glycerol/water wetting solution. Hydrogel membranes are hydrated and Vitro-Corneum substrates are hydrated. When the hydration is complete, the Vitro-Corneum substrate is deposited on the hydrogel. The final skin model is now ready for experiments.
The TEWL (Trans-Epidermal Water Loss) measurements were performed with a Vapometer and Moisturemeter, product of Delfin Technologies (Finland).
Hydrated artificial skin membrane is placed on the top of a Franz Cell, 50 μL of the product to be tested is applied on the membrane and spread manually with a finger protected by a glove. The Vapometer measures the water evaporation rate thanks to sensitive humidity sensors mounted in a cylindrical measurement chamber at the core of the device. During the measurement, the chamber is closed by the support and unaffected by ambient airflows. The water evaporation rate (g/m^2 h) is calculated from the increase of relative humidity in function of time. Ambient temperature and humidity are recorded using an external room sensor.
For our TEWL measurement method, each experiment lasts one hour, and several measurements were taken at different time points during this period.
All the experiments were compared to a reference system: hydrated artificial skin model, pre-treatment, without raw material application. […] For each experiment, the evaporation rate was measured before the ingredient application and the TEWL results were normalized by its value. With the normalization, the reference corresponds to 100% of water evaporation.

Row | Compound | moisturizing (reduction of water evaporation rate / TEWL after deposit of the sample) | further results
1 | CC(=O)[C@]1(C)CC2=C(CCCC2(C)C)C[C@H]1C (racemic) [1-((2rs,3rs)-2,3,8,8-tetramethyl-1,2,3,4,5,6,7,8-octahydronaphthalen-2-yl)ethenone] | suitable moisturizing potential | –
2 | CCC(=O)OCC(=O)O[C@@H](C)[C@@H]1CCCC(C)(C)C1 [2-{(1S)-1-[(1R)-3,3-dimethylcyclohexyl]ethoxy}-2-oxoethyl propionate] | have moisturizing effects | –
3 | CCC(=O)OCC(C)(C)O[C@@H](C)[C@@H]1CCCC(C)(C)C1 [(+)-2-{(1S)-1-[(1R)-3,3-dimethylcyclohexyl]ethoxy}-2-methylpropyl propionate] | suitable moisturizing potential | –
4 | 1-oxa-12-cyclohexadecen-2-one (a)+1-oxa-13-cyclohexadecen-2-one | suitable moisturizing potential | –
5 | CC(=O)OCc1ccccc1 [benzyl acetate] | suitable moisturizing potential | moisturizing (reduction of water evaporation rate / TEWL after deposit of the sample) (listed as Benzyl acetate): have moisturizing effects
6 | (3RS,3aRS,6SR,7aSR)-3,6-dimethylhexahydro-1-benzofuran-2(3H)-one (A)+(3RS,3aSR,6RS,7aRS)-3,6-dimethylhexahydro-1-benzofuran-2(3H)-one (B) | have moisturizing effects; also recorded: suitable moisturizing potential | –
7 | CCCCC[C@@H]1C(=O)CCCC[C@H]1CC(=O)OC [(+)-methyl (1s)-trans-3-oxo-2-pentyl-1-cycloheptaneacetate] | suitable moisturizing potential | moisturizing (reduction of water evaporation rate / TEWL after deposit of the sample) (listed as Cycloheptaneacetic acid, 3-oxo-2-pentyl-): have moisturizing effects
8 | CO[C@@]1(C)CC[C@@]23C[C@@H]1C(C)(C)[C@@H]2CC[C@H]3C (racemic) [(+−)-8-methoxycedrane] | have moisturizing effects; also recorded: suitable moisturizing potential | –
9 | O=C1CCCCCCCCCCCCCCO1 [oxacyclohexadecan-2-one] | suitable moisturizing potential | moisturizing (reduction of water evaporation rate / TEWL after deposit of the sample) (listed as Oxacyclohexadecan-2-one): have moisturizing effects
10 | CC1/C=C/CCCCCCCCCCC(=O)C1 (racemic) [(+−)-(4e)-3-methyl-4-cyclopentadecen-1-one] | suitable moisturizing potential | –
11 | C=C(C)C1CC=C(C)CC1 (stereo not shown) [1-methyl-4-(1-methylethenyl)-cyclohexene] | have moisturizing effects; also recorded: suitable moisturizing potential | –
12 | C=CCCC(=O)C1=CCCC(C)(C)C1 [1-(5,5-dimethyl-1-cyclohexen-1-yl)-4-penten-1-one] | suitable moisturizing potential | –
13 | CC1(C)CCC[C@]2(C)[C@H]3CCO[C@]3(C)CC[C@@H]12 [(3ar,5as,9as,9br)-3a,6,6,9a-tetramethyldodecahydronaphtho[2,1-b]furan] | suitable moisturizing potential | –
